Columns and labels:
[1] = test system: chloroquine (CQ) induced itch behavior; experiment: Chloroquine-induced mouse model of acute itch and its potentiation by α,β-Me-ATP; assay type: in vivo
[2] = test system: chronic itch behavior (spontaneous scratches); experiment: AEW (acetone-ether-water) dry skin model of chronic itch; assay type: in vivo, mouse; conditions: Day 10
[3] = test system: chronic itch behavior (spontaneous scratches); experiment: MC903 atopic dermatitis model of chronic itch; assay type: in vivo, mouse; conditions: Day 8
Description: MC903 (calcipotriol, Tocris) was dissolved in 100% ethanol and topically applied on C57B16/J male mouse ears (4 nmol in 40 μl, 10 μl per side of ear) or nape (4 nmol in 40 μl). This regimen was administered twice daily for 7 days. Scratching behaviors were recorded 16 h after the last MC903 treatment. […] Mice were placed individually into behavior chambers and video recorded at a side angle for 60-90 minutes. A scratch was defined as a lifting of the hind limb towards the nape or head to scratch and then a replacing of the limb back to the floor, regardless of how many scratching strokes take place between lifting and lowering of the hind limb. Experimenters for injections and observers of scratching behavior were blinded to the injection compounds and groups of mice, respectively.

With CNC(=O)c1cc(F)c(-c2nc3cc(C)ccn3c2C[C@H]2CN(C(=O)OC)CCO2)c(F)c1 [Compound 1] the “number of scratches in 15 minutes (mean ± s.e.m.)” value ([1]; 20 μg CQ + 50 μM α,β-Me-ATP, 10 mg/kg i.p., vehicle 46.6±2.9, p=0.0084) was 28.3±4.6 scratches, the “decrease of the potentiation of CQ-induced itch by ATP” value ([1]; 20 μg CQ + 50 μM α,β-Me-ATP, 10 mg/kg i.p., vs vehicle) was 40% and the “scratching behavior compared to vehicle” value ([1]; 20 μg CQ + 50 μM α,β-Me-ATP, 2, 10, or 50 mg/kg i.p. 30 min before, FIG. 2) was “decreased scratching behavior”. The “number of scratches in 15 minutes (mean ± s.e.m.)” value ([1]; 20 μg CQ + 100 μM α,β-Me-ATP, 10 mg/kg i.p., vehicle 67±6.3, p=0.0074, FIG. 3) was 44.8±3.8 scratches, the “decrease of the potentiation of CQ-induced itch by higher concentrations of ATP” value ([1]; 20 μg CQ + 100 μM α,β-Me-ATP, 10 mg/kg i.p., vs vehicle) was 33% and the “decrease of itch induced by high dose CQ” value ([1]; 200 μg CQ, 10 mg/kg i.p., vs vehicle) was 21%. The “number of scratches in 30 minutes (mean ± s.e.m.)” value ([1]; high dose CQ 200 μg, 10 mg/kg i.p., vehicle 280±16.1, p=0.011, FIG. 4) was 221.8±12.9 scratches, the “time course of spontaneous scratches in 10-min intervals” value ([2]; 2, 10, 50 mg/kg i.p., FIG. 6) was “significant effect on spontaneous scratches at 20 min, 40 min, 50 min, and 60 min” and the “spontaneous scratches in 60 min compared to vehicle” value ([2]; 2, 10, or 50 mg/kg i.p., statistically significant for all doses (p<0.001), FIG. 5) was “decreased spontaneous scratches”. The “time course of spontaneous scratches in 10-min intervals” value ([3]; 2, 10, 50 mg/kg i.p., FIG. 8) was “significant effect on spontaneous scratches at 10 min, 20 min, 30 min, 40 min, 50 min, and 60 min time points” and the “spontaneous scratches in 60 min compared to vehicle” value ([3]; 2, 10, or 50 mg/kg i.p., statistically significant for all three doses, FIG. 7) was “dose-dependently decreased spontaneous scratches”.
CCN(CC)CCCC(C)Nc1ccnc2cc(Cl)ccc12 (stereo not shown) [CQ, chloroquine, reference compound] was tested, and the “number of scratches (mean ± s.e.m.)” value ([1]; mouse, in vivo) was 17.2±2.4 scratches.
For Nc1ncnc2c1ncn2C1OC(COP(=O)(O)CP(=O)(O)OP(=O)(O)O)C(O)C1O (stereo not drawn) [α,β-Me-ATP, α,β-methylene-adenosine 5′-triphosphate, reference compound], the “number of scratches (mean ± s.e.m.)” value ([1]; co-injected i.d. low dose CQ (20 μg) + 10 μM α,β-Me-ATP, p=0.0013 vs CQ) was 28.2±2.2 scratches, the “scratching behavior compared to CQ only or CQ+10 μM α,β-Me-ATP” value ([1]; co-injected i.d. low dose CQ (20 μg) + 50 μM α,β-Me-ATP, p<0.001 vs CQ, FIG. 1) was “further increased scratching behaviors” and the “number of scratches (mean ± s.e.m.)” value ([1]; mice injected i.d. solely with 10 μM α,β-Me-ATP) was 2.4±0.9 scratches. The “number of scratches (mean ± s.e.m.)” value ([1]; mice injected i.d. solely with 50 μM α,β-Me-ATP) was 5.6±1.8 scratches.

Source: patent publication US20210346391A1, “TREATMENT OF PRURITUS WITH P2X3 MODULATORS” (Bellus Health Cough Inc., priority 2018, published 2021)
